# Test results reported in paper PMC10159843, “Babesia duncani multi-omics identifies virulence factors and drug targets” (Nature Microbiology, 2023).
# Read-outs that look alike come from different tables or passages of the source.
# Columns and labels:
# B. duncani [1] = experiment: microbe, parasite or virus in culture; type: cell-based, Babesia duncani
# [2] = MTT cytotoxicity on HEK293 cells; type: cell-based, human; details: human, HEK293 cells, read-out: HEK293 LC50
# Procedure: (§1) HeLa, HepG2, HEK and HCT116 cell lines were obtained from the American Type Culture Collection and maintained in Dulbecco’s modified Eagle’s medium (Invitrogen 11995-065) containing 25 mM glucose, 1 mM sodium pyruvate and supplemented with 5 mM HEPES, 10% FBS and penicillin-streptomycin (50 U ml^−1 penicillin, 50 µg ml^−1 streptomycin). An estimated 20,000 cells per well were seeded in a 96-well tissue culture plate and allowed to adhere. After 24 h, cells were treated with either vehicle alone (0.1% dimethylsulfoxide) or vehicle containing different concentrations of the target drugs using a 2-fold serial dilution starting at 10 mM. Dimethylsulfoxide at 10% was used as a positive control. Cells were incubated at 37 °C for 72 h, after which each well was incubated with 0.5 mg ml^−1 of MTT reagent (Cayman Chemical, 10009591) for 4 h in the dark at 37 °C. Following addition of 100 µl dimethylsulfoxide to each well, absorbance was measured at optical density (OD)590 nm using Spectra max plate reader. From the obtained OD values, percent cell viability was calculated by normalizing to the mean of 10% dimethylsulfoxide wells (set as 100% toxicity) and the mean of the vehicle control wells (set as 0% toxicity). Dose-response curves were plotted using GraphPad Prism v9.1.2
# [3] = MTT cytotoxicity on HepG2 cells; type: cell-based, human; details: human, HepG2 cells, read-out: HepG2 LC50
# Procedure: as §1
# [4] = MTT cytotoxicity on HCT116 cells; type: cell-based, human; details: human, HCT116 cells, read-out: HCT LC50
# Procedure: as §1
# [5] = MTT cytotoxicity on HeLa cells; type: cell-based, human; details: human, HeLa cells, read-out: HeLa LC50
# Procedure: as §1
# B. duncani [6] = details: continuous in vitro culture in human erythrocytes; cited from earlier work
# B. duncani DHFR-TS = B. duncani DHFR-TS (Babesia duncani, UniProt A0AAD9UQZ8); type: biochemical
# B. microti DHFR-TS = B. microti DHFR-TS (Babesia microti, UniProt A0A1R4AAV1); type: biochemical
# HEK293 = experiment: MTT cytotoxicity on HEK293 cells; type: cell-based, human; details: 72 h, read-out: HEK293 LC50
# Procedure: as §1
# BmDHFR-TS = experiment: Inhibition of DHFR enzymatic activity of recombinant BmDHFR-TS; type: biochemical, B. microti; details: 0.1 μM enzyme, 300 μM DHF, 300 μM NADPH
# Procedure: (§2) The IC50 was determined from a sigmoidal dose-response curve using GraphPad Prism v9.1.2. […]
# (§3) denatured (2 X 20 min in 0.5N NaOH; 1.5 M NaCl) and neutralized (2 X 20 min in 0.5 M Tris-HCl, pH 7.5; 1.5 M NaCl). Southern blotting was done on nylon membrane, positively charged
# (§4) (Cat. No. 1417240, Roche) using 10X SSC and followed by UV crosslinking of transferred DNA.
# (§5) The membrane was hybridized overnight at 26 °C with the telomere probe and then washed twice for 5 min each in 2X SSC and for 20 min each in 0.5X SSC at 26°C. Bound probe was detected with disodium-2-chloro-5(4 methoxyspiro (1,2-dioxetane-3.2´-[5-chloro]tricycle[3.3.1.1.3.7] decan)-4-yl)-1-phenyl phosphate (CDP-StarTM, Cat. No.12041677001, Roche) according to the manufacturer’s instructions. The membrane was visualized using an Amersham ImageQuant 800 system (GE Healthcare Bio-Science AB, Uppsala, Sweden).
# (§6) Cloning, Expression, and Purification of recombinant B. duncani and B. microti DHFR-TS […]
# (§7) duncani (BdDHFR-TS) and B. microti (BmDHFR-TS) were cloned into pMAL-c4x by GenScript USA Inc. Both enzymes were expressed as fusion proteins with N’-terminal maltose-binding protein (MBP) tag. Constructs of pMAL-c4x-BdDHFR-TS and pMAL-c4x-BmDHFR-TS were transformed by heat shock into E. coli BL-21(DE3). E. coli BL-21(DE3) harboring pMAL-c4x-DHFR-TS was grown overnight in 2 ml LB ampicillin (100 µg/mL). […]
# HepG2 = experiment: MTT cytotoxicity on HepG2 cells; type: cell-based, human; details: 72 h, read-out: HepG2 LC50
# Procedure: as §1
# human cell lines = experiment: In vitro therapeutic index of antifolates against human cell lines; type: cell-based; details: human cell lines versus B. duncani IC50
# Procedure: Drug efficacy against B. duncani in vitro was determined using the SYBR Green assay as previously described. Briefly, a culture of B. duncani-infected human erythrocytes at 0.1% parasitemia and 5% haematocrit was maintained for 60 h in vitro in a 96-well plate in the absence or presence of varying concentrations of the drug of interest at concentrations ranging between 0.6 nM and 10 µM. An equal volume of lysis buffer (0.008% saponin, 0.08% Triton X-100, 20 mM Tris-HCl (pH 7.5) and 5 mM EDTA) containing SYBR Green-I (0.01%) was added to each well and the plate incubated at 37 °C for 1 h in the dark. Fluorescence counts in each well were measured at 480 nm (excitation) and 540 nm (emission) using a BioTek Synergy Mx microplate reader and background fluorescence from control wells containing uninfected RBCs was subtracted. A dose-response curve representing the fluorescence counts against the logarithm of the drug concentration was fitted by nonlinear regression and used to determine the IC50 of each drug. Analysis was conducted using GraphPad Prism 9.2.1. For each drug, two independent experiments, each with biological triplicates, were conducted. Data are shown as mean ± s.d. […]
# BdDHFR-TS = experiment: Inhibition of DHFR enzymatic activity of recombinant BdDHFR-TS; type: biochemical, B. duncani; details: 0.1 μM enzyme, 300 μM DHF, 300 μM NADPH
# Procedure: as §2, §3, §4, §5, §6, §7
# HCT116 = experiment: MTT cytotoxicity on HCT116 cells; type: cell-based, human; details: 72 h, read-out: HCT LC50
# Procedure: as §1
# HeLa = experiment: MTT cytotoxicity on HeLa cells; type: cell-based, human; details: 72 h, read-out: HeLa LC50
# Procedure: as §1
# Chain of B. duncani DHFR-TS (A0AAD9UQZ8 1-514): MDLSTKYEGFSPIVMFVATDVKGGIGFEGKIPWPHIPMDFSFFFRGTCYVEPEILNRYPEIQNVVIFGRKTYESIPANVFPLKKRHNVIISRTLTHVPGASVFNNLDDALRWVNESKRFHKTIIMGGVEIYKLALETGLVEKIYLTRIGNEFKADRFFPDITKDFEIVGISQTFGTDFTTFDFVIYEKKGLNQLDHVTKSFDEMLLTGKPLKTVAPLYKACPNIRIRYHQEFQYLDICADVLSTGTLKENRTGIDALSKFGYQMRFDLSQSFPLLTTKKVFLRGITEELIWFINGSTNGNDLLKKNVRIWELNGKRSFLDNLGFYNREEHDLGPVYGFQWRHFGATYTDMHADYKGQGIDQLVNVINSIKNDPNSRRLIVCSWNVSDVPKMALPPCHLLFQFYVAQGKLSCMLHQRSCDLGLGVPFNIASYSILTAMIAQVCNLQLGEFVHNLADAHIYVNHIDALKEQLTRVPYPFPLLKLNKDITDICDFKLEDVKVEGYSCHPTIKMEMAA
# Chain of B. microti DHFR-TS (A0A1R4AAV1 1-502): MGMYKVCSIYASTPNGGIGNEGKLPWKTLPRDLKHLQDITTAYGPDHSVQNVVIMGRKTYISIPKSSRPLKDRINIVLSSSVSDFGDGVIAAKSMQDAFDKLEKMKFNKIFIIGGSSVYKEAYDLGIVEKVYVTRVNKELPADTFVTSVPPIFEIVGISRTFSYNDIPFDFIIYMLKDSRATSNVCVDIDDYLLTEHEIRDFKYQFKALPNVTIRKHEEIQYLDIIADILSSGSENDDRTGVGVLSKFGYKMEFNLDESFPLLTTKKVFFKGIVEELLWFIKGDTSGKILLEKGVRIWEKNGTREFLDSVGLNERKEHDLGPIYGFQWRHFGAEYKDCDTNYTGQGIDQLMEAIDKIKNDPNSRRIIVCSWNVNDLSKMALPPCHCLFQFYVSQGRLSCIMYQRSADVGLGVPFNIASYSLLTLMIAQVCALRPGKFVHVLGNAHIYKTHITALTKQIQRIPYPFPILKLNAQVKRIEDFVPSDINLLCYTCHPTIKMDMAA
compound,measurement,setting,value
CCc1nc(N)nc(N)c1-c1ccc(Cl)cc1 [Pyrimethamine],IC50,"B. duncani [1]; Babesia duncani, Erythrocyte, 60 h, read-out: B. duncani IC50",0.94 ± 0.017 µM
same,CC50 at 72 h,[2],500 µM
same,CC50 at 72 h,[3],1690 µM
same,CC50 at 72 h,[4],> 30 µM
same,CC50 at 72 h,[5],> 900 µM
C=C[C@H]1C[N@@]2CC[C@H]1C[C@H]2[C@H](O)c1ccnc2ccc(OC)cc12 [quinine],susceptibility of B. duncani,B. duncani [6],low susceptibility
NC(=O)C1=CN([C@@H]2O[C@H](COP(=O)(O)OP(=O)(O)OC[C@H]3O[C@@H](n4cnc5c(N)ncnc54)[C@H](OP(=O)(O)O)[C@@H]3O)[C@@H](O)[C@H]2O)C=CC1 [NADPH],Vmax,B. duncani DHFR-TS,9.8 ± 2.1 μmol · min^-1 ×10^4
same,kcat,B. duncani DHFR-TS,0.4 ± 0.1 s⁻¹
same,Km,B. duncani DHFR-TS; complementary ligand at 300 μM,32.9 ± 1 µM
same,Vmax,B. microti DHFR-TS,10.1 ± 1.6 μmol · min^-1 ×10^4
same,kcat,B. microti DHFR-TS,1.7 ± 0.3 s⁻¹
same,Km,B. microti DHFR-TS; complementary ligand at 300 μM,27.3 ± 0.2 µM
CC[C@H]1OC(=O)[C@H](C)[C@@H](O[C@H]2C[C@@](C)(OC)[C@@H](O)[C@H](C)O2)[C@H](C)[C@@H](O[C@@H]2O[C@H](C)C[C@H](N(C)C)[C@H]2O)[C@](C)(O)C[C@@H](C)CN(C)[C@H](C)[C@@H](O)[C@]1(C)O [azithromycin],susceptibility of B. duncani,B. duncani [6],low susceptibility
O=C1C(O)=C([C@H]2CC[C@H](c3ccc(Cl)cc3)CC2)C(=O)c2ccccc21 [Atovaquone],IC50,"B. duncani [1]; Babesia duncani, Erythrocyte, read-out: IC50 of atovaquone, parental isolate WA1",0.072 µM
same,susceptibility of B. duncani,B. duncani [6],low susceptibility
CCC[C@@H]1C[C@@H](C(=O)N[C@@H]([C@H]2O[C@H](SC)[C@H](O)[C@@H](O)[C@H]2O)[C@H](C)Cl)N(C)C1 [clindamycin],susceptibility of B. duncani,B. duncani [6],low susceptibility
CC1(C)N=C(N)N=C(N)N1OCCCOc1cc(Cl)c(Cl)cc1Cl [WR-99210],IC50,B. duncani [1]; read-out: B. duncani IC50,0.00058 µM
same,CC50,HEK293,1000 µM
same,IC50,BmDHFR-TS,0.0068 µM
same,CC50,HepG2,1100 µM
same,TI (therapeutic index),human cell lines,>15K
same,IC50,BdDHFR-TS,0.0039 µM
same,CC50,HCT116,1050 µM
same,CC50,HeLa,> 900 µM
